Consider 14 compounds from US11071731B2, “Allosteric modulators of the mu opioid receptor” (Chiromics, LLC, priority 2017, dated 2021).

Some results are limits rather than exact numbers.

Test [1] has as its target T1, mu opioid receptor (MOR) (Homo sapiens, UniProt P35372). Kind of test: Hit Hunter cAMP signaling assay (adenylyl cyclase inhibition), PAM mode with EC20 endomorphin-1. Format: cell-based.
In test [2] the target is T1, mu opioid receptor (MOR). Kind of test: PathHunter β-arrestin recruitment assay, PAM mode with EC20 endomorphin-1. Format: cell-based. Conditions: for EC50: read-out: β-arr. EC50. In a few lines: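 Enzyme fragment complementation read-out: β-gal ED fragment fused to receptor, EA fused to β-arrestin, recruitment restoring β-gal activity detected by chemiluminescence. EC50 and percent maximal response derived for each compound.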
(In general: Recruitment of arrestin is a read-out of receptor activation apart from second messengers.)

Where [3] appears, read: adenylyl cyclase inhibition, read-out: cAMP EC50.
Setting [4] is: maximal response for adenylyl cyclase inhibition.
Setting [5] is: maximal response for β-arrestin recruitment.
Where [6] appears, read: cAMP EC50, adenylyl cyclase inhibition.
[7] abbreviates: maximal response, adenylyl cyclase inhibition.
The mark [8] stands for this setting: maximal response, β-arrestin recruitment.

T1 sequence (P35372 whole entry, the tested form may be a part): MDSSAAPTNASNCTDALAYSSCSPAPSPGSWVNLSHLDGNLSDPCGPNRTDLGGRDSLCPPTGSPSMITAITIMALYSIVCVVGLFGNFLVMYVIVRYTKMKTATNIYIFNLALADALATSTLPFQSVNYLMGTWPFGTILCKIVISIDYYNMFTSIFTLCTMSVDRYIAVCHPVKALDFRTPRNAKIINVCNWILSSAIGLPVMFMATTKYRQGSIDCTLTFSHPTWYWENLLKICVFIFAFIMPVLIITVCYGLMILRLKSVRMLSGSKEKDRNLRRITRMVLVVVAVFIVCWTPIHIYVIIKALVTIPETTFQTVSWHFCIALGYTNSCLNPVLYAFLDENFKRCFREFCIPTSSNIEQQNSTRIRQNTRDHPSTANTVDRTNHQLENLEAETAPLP

For orientation: EC50 means the concentration needed to bring the measured effect to its halfway point. Consider `Fc1ccc(C2CCCCN2c2nc(Cl)ncc2F)cc1Cl` (single isomer, unassigned) [compound 346], for which the concentration for a half-maximal effect (EC50) on mu opioid receptor (MOR) [1] (setting [3]) and on mu opioid receptor (MOR) [2] (β-arrestin recruitment) was under 700 nM in each case. The “cAMP Max. Resp.” value at mu opioid receptor (MOR) [1] (setting [4]) was “D (D represents a maximal response of < 40%)”. On mu opioid receptor (MOR) [2] (setting [5]), the “β-arr Max. Resp.” value was “D (D represents a maximal response of < 40%)”.
As to `Fc1cnc(Cl)nc1N1CCCCC1c1ccc2nccn2c1` (stereo not drawn) [compound 421], the EC50 at mu opioid receptor (MOR) [1] (setting [6]) and at mu opioid receptor (MOR) [2] (β-arrestin recruitment) was under 700 nM each time. Besides, the “cAMP Max. Resp.” value on mu opioid receptor (MOR) [1] (setting [7]) is “D (D represents a maximal response of < 40%)”. In addition, the “β-arr Max. Resp.” value on mu opioid receptor (MOR) [2] (setting [8]) is recorded as “D (D represents a maximal response of < 40%)”.
For `Fc1ccc(Cl)cc1CN1CCCCC1c1ccc(Cl)c(C(F)(F)F)c1` (stereo not drawn) [compound 150], the EC50 at mu opioid receptor (MOR) [1] (setting [6]) and on mu opioid receptor (MOR) [2] (β-arrestin recruitment) was under 700 nM each time. Besides, on mu opioid receptor (MOR) [1] (setting [4]), the “cAMP Max. Resp.” value is reported as “E (E represents a maximal response of 40-60%)”. Moreover, the “β-arr Max. Resp.” value at mu opioid receptor (MOR) [2] (setting [5]) is on record as “F (F represents a maximal response of > 60%)”.
Take `[2H]C1(c2ccc(F)c(Br)c2)C(F)CCCN1S(=O)(=O)c1cc(F)ccc1F` (stereo not drawn) [Compound 38]: the “cAMP Max. Resp.” value at mu opioid receptor (MOR) [1] (setting [4]) was “D (D represents a maximal response of < 40%)”. For the same compound, at mu opioid receptor (MOR) [2] (setting [5]), the “β-arr Max. Resp.” value was “F (F represents a maximal response of > 60%)”.
Turning to `C#Cc1ccccc1N1CCCCC1c1ccc(F)c(Cl)c1` (stereo not drawn) [compound 463], the EC50 at mu opioid receptor (MOR) [1] (setting [3]) and on mu opioid receptor (MOR) [2] (β-arrestin recruitment) was over 2100 nM in each case. Further, at mu opioid receptor (MOR) [1] (setting [7]), the “cAMP Max. Resp.” value is listed as “D (D represents a maximal response of < 40%)”. Besides, the “β-arr Max. Resp.” value at mu opioid receptor (MOR) [2] (setting [8]) is reported as “D (D represents a maximal response of < 40%)”.
Turning to `CC1CCN(S(=O)(=O)c2ccc(Cl)cc2)C1c1ccc(Br)c(F)c1` (mixture of isomers) [Compound 92], the EC50 on mu opioid receptor (MOR) [1] (setting [3]) was over 2100 nM; on mu opioid receptor (MOR) [2] (β-arrestin recruitment) it was 700 to 2100 nM. The “cAMP Max. Resp.” value on mu opioid receptor (MOR) [1] (setting [4]) is listed as “D (D represents a maximal response of < 40%)”. The “β-arr Max. Resp.” value at mu opioid receptor (MOR) [2] (setting [5]) was “F (F represents a maximal response of > 60%)”.
For `CC1CCN(S(=O)(=O)c2ccc(Cl)cc2)C1c1ccc(F)c(Cl)c1` (mixture of isomers) [Compound 105], the 50% effective concentration (EC50) at mu opioid receptor (MOR) [1] (setting [3]) and at mu opioid receptor (MOR) [2] (β-arrestin recruitment) was 700 to 2100 nM in each case. Moreover, the “cAMP Max. Resp.” value at mu opioid receptor (MOR) [1] (setting [4]) was “D (D represents a maximal response of < 40%)”. Besides, the “β-arr Max. Resp.” value at mu opioid receptor (MOR) [2] (setting [5]) was “F (F represents a maximal response of > 60%)”.
Take `Fc1cnc(Cl)nc1N1CCCCCC1c1cccc(C(F)(F)F)n1` (stereo not drawn) [compound 253]: the 50% effective concentration (EC50) at mu opioid receptor (MOR) [1] (setting [3]) and on mu opioid receptor (MOR) [2] (β-arrestin recruitment) was over 2100 nM throughout. Also, the “cAMP Max. Resp.” value on mu opioid receptor (MOR) [1] (setting [4]) is given as “E (E represents a maximal response of 40-60%)”. Besides, the “β-arr Max. Resp.” value on mu opioid receptor (MOR) [2] (setting [5]) is on record as “F (F represents a maximal response of > 60%)”.
With `Fc1cnc(Cl)nc1N1CCCCC1c1c(C(F)(F)F)ccc(F)c1Br` (stereo not drawn) [compound 354], the concentration for a half-maximal effect (EC50) on mu opioid receptor (MOR) [1] (setting [6]) and at mu opioid receptor (MOR) [2] (β-arrestin recruitment) was under 700 nM throughout. The “cAMP Max. Resp.” value at mu opioid receptor (MOR) [1] (setting [4]) is listed as “D (D represents a maximal response of < 40%)”. Moreover, the “β-arr Max. Resp.” value at mu opioid receptor (MOR) [2] (setting [5]) is given as “D (D represents a maximal response of < 40%)”.
For the compound `CC1CCN(S(=O)(=O)c2ccc(Cl)cc2)C1c1ccc(Cl)cc1` (mixture of isomers) [Compound 88], the EC50 at mu opioid receptor (MOR) [1] (setting [3]) and at mu opioid receptor (MOR) [2] (β-arrestin recruitment) was over 2100 nM throughout. For the same compound, the “cAMP Max. Resp.” value at mu opioid receptor (MOR) [1] (setting [4]) was “D (D represents a maximal response of < 40%)”. Moreover, the “β-arr Max. Resp.” value at mu opioid receptor (MOR) [2] (setting [5]) is “E (E represents a maximal response of 40-60%)”.
Take `Fc1cnc(Cl)nc1N1CCCCC1c1cccc(Cl)c1F` (stereo not drawn) [compound 369]: the concentration for a half-maximal effect (EC50) at mu opioid receptor (MOR) [1] (setting [6]) and on mu opioid receptor (MOR) [2] (β-arrestin recruitment) was under 700 nM each time. Further, the “cAMP Max. Resp.” value at mu opioid receptor (MOR) [1] (setting [4]) was “D (D represents a maximal response of < 40%)”. Besides, at mu opioid receptor (MOR) [2] (setting [5]), the “β-arr Max. Resp.” value is reported as “D (D represents a maximal response of < 40%)”.
As to `FC(F)(F)c1cccc(CN2CCCCC2c2cccc(C(F)(F)F)n2)c1` (stereo not drawn) [compound 175], the half-maximal effective concentration (EC50) at mu opioid receptor (MOR) [1] (setting [6]) and on mu opioid receptor (MOR) [2] (β-arrestin recruitment) was over 2100 nM throughout. Moreover, the “cAMP Max. Resp.” value at mu opioid receptor (MOR) [1] (setting [4]) was “E (E represents a maximal response of 40-60%)”. Moreover, the “β-arr Max. Resp.” value at mu opioid receptor (MOR) [2] (setting [5]) is reported as “F (F represents a maximal response of > 60%)”.
For `N#Cc1cc(C2CCCCN2S(=O)(=O)c2ccc(Cl)cc2)ccn1` (racemic) [compound 80], the EC50 at mu opioid receptor (MOR) [1] (setting [3]) and at mu opioid receptor (MOR) [2] (β-arrestin recruitment) was over 2100 nM in each case. Moreover, the “cAMP Max. Resp.” value on mu opioid receptor (MOR) [1] (setting [4]) is “D (D represents a maximal response of < 40%)”. Also, at mu opioid receptor (MOR) [2] (setting [5]), the “β-arr Max. Resp.” value is “E (E represents a maximal response of 40-60%)”.
For `Fc1cnc(Cl)nc1N1CCCCC1c1ccc2c(c1)CCO2` (stereo not drawn) [compound 371], the concentration for a half-maximal effect (EC50) at mu opioid receptor (MOR) [1] (setting [6]) and at mu opioid receptor (MOR) [2] (β-arrestin recruitment) was under 700 nM each time. Also, the “cAMP Max. Resp.” value at mu opioid receptor (MOR) [1] (setting [4]) is “D (D represents a maximal response of < 40%)”. The “β-arr Max. Resp.” value on mu opioid receptor (MOR) [2] (setting [5]) is listed as “D (D represents a maximal response of < 40%)”.
